In ChEMBL document CHEMBL1201862, “PubChem BioAssay data set” (2004):
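Grown in 96-well plates, cells were treated for 48 hours with each compound at five concentrations. Insufficient inhibition: endpoint recorded as highest concentration tested. Here, GI50 denotes the concentration required for 50% inhibition of growth.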 Activity calls are given as the source filed them. Rule as the data show it: active = GI50 up to about 1.1 µM and inactive = higher.

Legend:
Assay in all cases: inhibition of tumour cell growth, NCI panel, 48 h
SK-MEL-28 = test system: SK-MEL-28
EKVX = test system: EKVX
U-251 = test system: U-251
M14 = test system: M14
CAKI-1 = test system: CAKI-1
SK-MEL-5 = test system: SK-MEL-5
UO-31 = test system: UO-31
NCI-H226 = test system: NCI-H226
SNB-75 = test system: SNB-75
HT-29 = test system: HT-29
UACC-62 = test system: UACC-62
NCI-H23 = test system: NCI-H23
COLO 205 = test system: COLO 205
MOLT-4 = test system: MOLT-4
LOX IMVI = test system: LOX IMVI
NCI-H460 = test system: NCI-H460
HL-60 = test system: HL-60
SK-MEL-2 = test system: SK-MEL-2
HCT-15 = test system: HCT-15
SF-268 = test system: SF-268

SMILES	GI50 (SK-MEL-28)	GI50 (EKVX)	GI50 (U-251)	GI50 (M14)	GI50 (CAKI-1)	GI50 (SK-MEL-5)	GI50 (UO-31)	GI50 (NCI-H226)	GI50 (SNB-75)	GI50 (HT-29)	GI50 (UACC-62)	GI50 (NCI-H23)	GI50 (COLO 205)	GI50 (MOLT-4)	GI50 (LOX IMVI)	GI50 (NCI-H460)	GI50 (HL-60)	GI50 (SK-MEL-2)	GI50 (HCT-15)	GI50 (SF-268)
N#CCCC1C(C#N)C2(Cl)CC1(Cl)C(Cl)=C2Cl (stereo unspecified)	> 10 µM (inactive)	> 10 µM (inactive)	> 10 µM (inactive)	> 10 µM (inactive)	> 10 µM (inactive)	> 10 µM (inactive)	> 10 µM (inactive)	> 10 µM (inactive)	> 10 µM (inactive)	> 10 µM (inactive)	> 10 µM (inactive)	> 10 µM (inactive)	> 10 µM (inactive)	> 10 µM (inactive)	> 10 µM (inactive)	> 10 µM (inactive)	> 10 µM (inactive)	> 10 µM (inactive)	> 10 µM	> 10 µM (inactive)
Cc1ccc(/N=N/NCCCCN/N=N/c2ccc(C)cc2)cc1	> 100 µM (inactive)	> 100 µM (inactive)	> 100 µM (inactive)	8.05 µM (inactive)	> 100 µM (inactive)	23.4 µM (inactive)	0.196 µM (active)	> 100 µM (inactive)	> 100 µM (inactive)	> 100 µM (inactive)	> 100 µM (inactive)	9.25 µM (inactive)	35.4 µM (inactive)	14.2 µM (inactive)	1.17 µM (inactive)	12.5 µM (inactive)	1.75 µM (inactive)	> 100 µM (inactive)	4.93 µM	96.8 µM (inactive)
Cc1ccc(Cl)cc1/N=N/C(=O)NNc1cc(Cl)ccc1C	18 µM (inactive)	–	19.7 µM (inactive)	14.5 µM (inactive)	13.1 µM (inactive)	14.2 µM (inactive)	14.1 µM (inactive)	20.1 µM (inactive)	13.1 µM (inactive)	26.9 µM (inactive)	11.2 µM (inactive)	19.4 µM (inactive)	21.9 µM (inactive)	13.9 µM (inactive)	–	18 µM (inactive)	58.9 µM (inactive)	13.9 µM (inactive)	17.1 µM	–
CC1CN=C(NCc2ccccc2)S1 (stereo unspecified)	> 100 µM (inactive)	> 100 µM (inactive)	> 100 µM (inactive)	> 100 µM (inactive)	–	–	> 100 µM (inactive)	86.7 µM (inactive)	> 100 µM (inactive)	> 100 µM (inactive)	> 100 µM (inactive)	> 100 µM (inactive)	–	> 100 µM (inactive)	> 100 µM (inactive)	> 100 µM (inactive)	65 µM (inactive)	> 100 µM (inactive)	> 100 µM	> 100 µM (inactive)
O=c1n(CC2CO2)c2ccccc2n1CC1CS1 (stereo unspecified)	> 100 µM (inactive)	> 100 µM (inactive)	–	> 100 µM (inactive)	45.1 µM (inactive)	–	> 100 µM (inactive)	> 100 µM (inactive)	–	> 10 µM (inactive)	49 µM (inactive)	–	> 100 µM (inactive)	73.3 µM (inactive)	71 µM (inactive)	> 100 µM (inactive)	11.1 µM (inactive)	> 100 µM (inactive)	> 100 µM	91.8 µM (inactive)
CCC1=NC(C(F)(F)F)(C(F)(F)F)N=C(N2CCOCC2)O1	> 100 µM (inactive)	> 100 µM (inactive)	> 100 µM (inactive)	> 100 µM (inactive)	34.5 µM (inactive)	> 100 µM (inactive)	> 100 µM (inactive)	–	> 100 µM (inactive)	> 100 µM (inactive)	> 100 µM (inactive)	> 100 µM (inactive)	> 100 µM (inactive)	> 100 µM (inactive)	> 100 µM (inactive)	> 100 µM (inactive)	> 100 µM (inactive)	> 100 µM (inactive)	> 100 µM	> 100 µM (inactive)
COC(C/C=C\C=C\CC/C=C/CC(C)/C=C/C(=C\C(=O)O)CC(=O)O)/C(C)=C\C=C(/C)C(=O)O (stereo unspecified)	> 100 µM (inactive)	28.4 µM (inactive)	> 100 µM (inactive)	> 100 µM (inactive)	> 100 µM (inactive)	99.3 µM (inactive)	> 100 µM (inactive)	–	58.3 µM (inactive)	> 100 µM (inactive)	> 100 µM (inactive)	> 100 µM (inactive)	> 100 µM (inactive)	> 100 µM (inactive)	–	> 100 µM (inactive)	–	> 100 µM (inactive)	> 100 µM	> 100 µM (inactive)
COC(c1ccc(C(C)(C)C)cc1)(c1ccc(C(C)(C)C)cc1)c1cc(C(O)(c2cc(C(OC)(c3ccc(C(C)(C)C)cc3)c3ccc(C(C)(C)C)cc3)c(C)cc2C)c2cc(C(OC)(c3ccc(C(C)(C)C)cc3)c3ccc(C(C)(C)C)cc3)c(C)cc2C)c(C)cc1C	> 100 µM (inactive)	> 100 µM (inactive)	> 100 µM (inactive)	> 100 µM (inactive)	> 100 µM (inactive)	> 100 µM (inactive)	> 100 µM (inactive)	92.5 µM (inactive)	28.3 µM (inactive)	> 100 µM (inactive)	> 100 µM (inactive)	> 100 µM (inactive)	> 100 µM (inactive)	> 100 µM (inactive)	> 100 µM (inactive)	> 100 µM (inactive)	> 100 µM (inactive)	> 100 µM (inactive)	> 100 µM	> 100 µM (inactive)
CC1(C)CCc2cc3c(-c4ccccc4)cc(=O)oc3cc2O1	> 100 µM (inactive)	> 100 µM (inactive)	> 100 µM (inactive)	> 100 µM (inactive)	> 100 µM (inactive)	> 100 µM (inactive)	> 100 µM (inactive)	> 100 µM (inactive)	13.7 µM (inactive)	> 100 µM (inactive)	> 100 µM (inactive)	> 100 µM (inactive)	> 100 µM (inactive)	> 100 µM (inactive)	> 100 µM (inactive)	> 100 µM (inactive)	> 100 µM (inactive)	> 100 µM (inactive)	> 100 µM	> 100 µM (inactive)
CCOC(=O)c1csc(NC(=O)CN(C)C)n1	> 100 µM (inactive)	> 100 µM (inactive)	> 100 µM (inactive)	> 100 µM (inactive)	> 100 µM (inactive)	> 100 µM (inactive)	> 100 µM (inactive)	> 100 µM (inactive)	> 100 µM (inactive)	> 100 µM (inactive)	> 100 µM (inactive)	> 100 µM (inactive)	> 100 µM (inactive)	> 100 µM (inactive)	> 100 µM (inactive)	> 100 µM (inactive)	> 100 µM (inactive)	> 100 µM (inactive)	> 100 µM	> 100 µM (inactive)
C=C(C)C1CC2=C(O1)C(=O)c1ccccc1C2=O (stereo not drawn) [DEHYDROISO-ALPHA-LAPACHONE]	19 µM (inactive)	25.7 µM (inactive)	16.5 µM (inactive)	18.5 µM (inactive)	17.6 µM (inactive)	14 µM (inactive)	–	> 10 µM (inactive)	17.6 µM (inactive)	20.9 µM (inactive)	16.1 µM (inactive)	18.9 µM (inactive)	19.3 µM (inactive)	10.6 µM (inactive)	9.18 µM (inactive)	17.7 µM (inactive)	3.38 µM (inactive)	–	17.9 µM	–
Cc1cn(C2CC(O)C(Cn3nncc3Cn3ncc(=O)[nH]c3=O)O2)c(=O)[nH]c1=O (stereo unspecified)	> 100 µM (inactive)	> 100 µM (inactive)	> 100 µM (inactive)	> 100 µM (inactive)	> 100 µM (inactive)	> 100 µM (inactive)	> 100 µM (inactive)	> 100 µM (inactive)	–	–	> 100 µM (inactive)	> 100 µM (inactive)	> 100 µM (inactive)	> 100 µM (inactive)	> 100 µM (inactive)	–	–	> 100 µM (inactive)	> 100 µM	> 100 µM (inactive)
O=c1c2ccccc2[nH]c2cc(O)cc(O)c12	> 100 µM (inactive)	–	79.3 µM (inactive)	91 µM (inactive)	–	19.1 µM (inactive)	21 µM (inactive)	27.2 µM (inactive)	47.9 µM (inactive)	40.2 µM (inactive)	> 100 µM (inactive)	22.9 µM (inactive)	–	34.2 µM (inactive)	32.1 µM (inactive)	32.8 µM (inactive)	> 100 µM (inactive)	81.7 µM (inactive)	55.6 µM	93.8 µM (inactive)
CCCCOC(=O)CN1C(=O)c2ccccc2C1=O	> 100 µM (inactive)	> 100 µM (inactive)	> 100 µM (inactive)	> 100 µM (inactive)	84.5 µM (inactive)	> 100 µM (inactive)	> 100 µM (inactive)	> 100 µM (inactive)	> 100 µM (inactive)	> 100 µM (inactive)	> 100 µM (inactive)	> 100 µM (inactive)	> 100 µM (inactive)	> 100 µM (inactive)	> 100 µM (inactive)	> 100 µM (inactive)	> 100 µM (inactive)	> 100 µM (inactive)	> 100 µM	> 100 µM (inactive)
